This assay deals with HPV11-specific CTL activity. The experiment in a line: In vivo CTL assay (CFSE-labelled target cells) after co-immunization with CTL epitope HPV11. Set-up: species or system HLA-DR4-tg mice. The following applies: 3 weeks. The procedure: HLA-DR4-tg mice were immunized with no peptide (A); 60 nmole of HPV11 (HPV16 E7 (49-57) an H-2D^b-restricted CTL epitope) (B); 60 nmole of HPV11 plus 15 nmole HPV4 hybrid (C); 60 nmole of HPV11 plus 30 nmole HPV4 hybrid (D); or 60 nmole of HPV11 plus 60 nmole HPV4 hybrid (E). Peptides were mixed with 20 μg of CpG and then emulsified in an equal volume of IFA in a total volume of 150 μl/mouse. Three weeks after immunization, HPV11-specific CTL activity was measured in an in vivo assay whereby the cells were incubated with either the immunizing peptide (HPV11) and a high concentration of CFSE or no peptide and a low concentration of CFSE. Equal numbers of the two cell populations were mixed and injected by tail vein into mice. The top figure indicates the percentage of HPV11-specific CTL killing as determined by the ratio of CFSE^low to CFSE^high cells using the formula 1—CFSE^low/CFSE^high following flowcytometry. The histograms for each group are shown below. The data shown are from pooled splenocytes (2 mice per group).
HLA-DR4-tg mice were immunized with no peptide (A); 60 nmole of HPV11 (HPV16 E7 (49-57), an H-2D^b-restricted CTL epitope) (B); 30 nmole HPV1 plus 60 nmole HPV11 (C); or 30 nmole HPV4 plus 60 nmole HPV11. The peptides were administered as indicated for FIG. 3. Three weeks after immunization, HPV11-specific CTL activity was measured in an in vivo assay (see FIG. 3). […]

Consider “rahynivtf (RAHYNIVTF; Human papillomavirus type 16) [HPV11]”, for which the “HPV11-specific CTL killing (%)” value (Table 5: 60 nmole HPV11 alone, CpG + IFA, pooled splenocytes (2 mice per group)) came to 19%. In addition, for the setting “Table 6: 60 nmole HPV11 alone or with 30 nmole HPV1 or HPV4, CpG + IFA, pooled splenic cells”, the “HPV11-specific CTL activity (%)” value is listed as 14%.

These data come from patent US8748130B2, “Human papillomavirus / Ii-Key hybrids and methods of use” (priority 2008, dated 2014).
